In experiment [1] the test system is acetylated histone H-4 in T24 human bladder cancer cells. As to the kind of experiment: Histone H4 acetylation in whole cells by immunoblots. In kind it is cell-based. The following applies: T-24, Table 5F, 16 h, read-out: H4 Ac (T24) EC50. The method in brief:
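Acetylated histone H4 was quantified by densitometry of ECL-developed immunoblots, probed with a polyclonal antibody, of […] total histone from T24 cultures exposed 16 h to HDAC inhibitors.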

Experiment [2] addresses T1, cloned recombinant human HDAC-1 (Homo sapiens, UniProt Q13547).
T1 construct: made in house; host or cells: Baculovirus insect cell expression system
As to the kind of experiment: Human HDAC-1 enzyme inhibition, Assay 1 ([3H]-acetylated histone substrate, scintillation counting). The conditions noted are these: Table 5F; read-out: Human HDAC-1 IC50. It counts as biochemical. The method in brief:
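Activity read as [3H]-acetic acid liberated from labeled substrate, ethyl acetate-extracted and scintillation-counted. Compounds preincubated 30 min at 4° C. with baculovirus-expressed, purified human HDAC-1. Dose-response curves give IC50 as concentration producing fifty percent of maximal inhibition.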

Experiment [3] has as its system HCT116 cells. As to the kind of experiment: MTT assay. In kind it is cell-based. The conditions noted are these: Homo sapiens, HCT-116, 72 h, Table 5F; HCT116 cells, 72 hours. An outline of the steps:
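Read-out: MTT (0.5 mg/ml final, 4 h) after solubilization in 50% DMF/20% SDS, pH 4.7, with OD translated into cell number via the line's growth curve. Compound treatment lasted 72 h at 37 °C in 5% CO2, starting a day after plating.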
(In general: Tetrazolium assays rely on reduction of a dye to a coloured formazan, in cell work by metabolically active cells.)

T1 sequence (Q13547 whole entry): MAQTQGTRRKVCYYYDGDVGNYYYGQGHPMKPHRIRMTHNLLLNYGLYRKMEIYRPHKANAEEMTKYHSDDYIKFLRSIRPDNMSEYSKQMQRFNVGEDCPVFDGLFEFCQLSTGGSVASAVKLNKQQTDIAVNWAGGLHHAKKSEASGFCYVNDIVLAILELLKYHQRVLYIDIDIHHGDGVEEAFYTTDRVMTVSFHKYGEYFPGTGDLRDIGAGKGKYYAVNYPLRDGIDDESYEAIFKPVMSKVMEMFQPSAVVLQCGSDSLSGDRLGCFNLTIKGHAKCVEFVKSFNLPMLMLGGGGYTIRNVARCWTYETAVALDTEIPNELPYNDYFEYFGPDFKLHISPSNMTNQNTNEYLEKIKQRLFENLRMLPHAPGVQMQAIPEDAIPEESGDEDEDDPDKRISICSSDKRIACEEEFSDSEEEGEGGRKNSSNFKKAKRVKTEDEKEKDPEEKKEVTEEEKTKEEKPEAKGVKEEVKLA

Regarding `Nc1ccccc1NC(=O)c1ccc(CC2C(=O)c3ccccc3C2O)cc1` (stereo not drawn) [Cpd 365, N-(2-Amino-phenyl)-4-(1-hydroxy-3-oxo-indan-2-ylmethyl)-benzamide], the half-maximal effective concentration (EC50) in experiment [1] was found to be 3000 nM. In addition, the 50% inhibitory concentration (IC50) in experiment [2] came out at 3000 nM; in experiment [3], 600 nM.

With `COc1ccc(C2C=CC(c3ccc(C(=O)Nc4ccccc4N)cc3)O2)cc1` (stereo not drawn) [Cpd 367, N-(2-Amino-phenyl)-4-[5-(4-methoxy-phenyl)-2,5-dihydro-furan-2-yl]-benzamide], the EC50 in experiment [1] came to 5000 nM. In addition, the IC50 in experiment [2] is 6000 nM; in experiment [3] it was 2000 nM.

`COc1ccc(NC(=O)N(Cc2ccc(C(=O)Nc3ccccc3N)cc2)c2ccc(OC)c(OC)c2)cc1OC` [Cpd 371, N-(2-Amino-phenyl)-4-[1,3-bis-(3,4-dimethoxy-phenyl)-ureidomethyl]-benzamide]: in experiment [1], the EC50 was 2000 nM. In addition, the half-maximal inhibitory concentration (IC50) is 4000 nM in experiment [2] and 500 nM in experiment [3].

`COc1ccc(N(Cc2ccc(C(=O)Nc3ccccc3N)cc2)C(=O)Nc2ccc(Cl)cc2)cc1OC` [Cpd 372, N-(2-Amino-phenyl)-4-[3-(4-chloro-phenyl)-1-(3,4-dimethoxy-phenyl)-ureidomethyl]-benzamide]: the EC50 in experiment [1] stood at 1000 nM. For the same compound, the IC50 in experiment [2] amounted to 2000 nM; in experiment [3] it was 200 nM.

For `COc1ccc(N(Cc2ccc(C(=O)Nc3ccccc3N)cc2)C(=O)Nc2ccccc2)cc1OC` [Cpd 373, N-(2-Amino-phenyl)-4-[1-(3,4-dimethoxy-phenyl)-3-phenyl-ureidomethyl]-benzamide], the concentration giving a half-maximal response (EC50) in experiment [1] worked out at 1000 nM. The IC50 in experiment [2] is 4000 nM; in experiment [3], 400 nM.

Turning to `COc1ccc(N(Cc2ccc(C(=O)Nc3ccccc3N)cc2)C(=O)Nc2ccc(Oc3ccccc3)cc2)cc1OC` [Cpd 374, N-(2-Amino-phenyl)-4-[1-(3,4-dimethoxy-phenyl)-3-(4-phenoxy-phenyl)-ureidomethyl]-benzamide], in experiment [1], the concentration for a half-maximal effect (EC50) stood at 1000 nM. The figures for the concentration for half-maximal inhibition (IC50) in experiment [2] and in experiment [3] were 2500 nM and 300 nM, respectively.

Regarding `Nc1ccccc1NC(=O)c1ccc(-c2ccc(C(=O)Nc3ccccc3N)cc2)cc1` [Cpd 375, Biphenyl-4,4′-dicarboxylic acid bis-[(2-amino-phenyl)-amide]], the EC50 in experiment [1] was found to be 25000 nM. Besides, the IC50 came to 3000 nM in experiment [2] and 4000 nM in experiment [3].

For the compound `Nc1ccccc1NC(=O)c1ccc(CNc2ncccn2)cc1` [Cpd 377], the concentration for a half-maximal effect (EC50) in experiment [1] came out at 3000 nM. Further, the half-maximal inhibitory concentration (IC50) in experiment [2] was determined as 4000 nM; in experiment [3], 2000 nM.

With `Cc1cc(C)nc(SCc2ccc(C(=O)Nc3ccccc3N)cc2)n1` [Cpd 378, N-(2-Amino-phenyl)-4-(4,6-dimethyl-pyrimidin-2-ylsulfanylmethyl)-benzamide], the EC50 in experiment [1] is 2000 nM. Moreover, the IC50 in experiment [2] was 2000 nM; in experiment [3] it was 700 nM.

Consider `Nc1ccccc1NC(=O)c1ccc(CSc2nccc(C(F)(F)F)n2)cc1` [Cpd 379, N-(2-Amino-phenyl)-4-(4-trifluoromethyl-pyrimidin-2-ylsulfanylmethyl)-benzamide], for which, in experiment [1], the concentration giving a half-maximal response (EC50) worked out at 15000 nM. In addition, the 50% inhibitory concentration (IC50) in experiment [2] amounted to 2000 nM; in experiment [3], 600 nM.

Regarding `Nc1ccccc1NC(=O)c1ccc(CSc2ccccn2)cc1` [Cpd 381], in experiment [1], the EC50 was found to be 2000 nM. The IC50 in experiment [2] was found to be 2000 nM; in experiment [3], 1000 nM.

In the case of `Cc1cc(C)nc(NCc2ccc(C(=O)Nc3ccccc3N)cc2)n1` [Cpd 382, N-(2-Amino-phenyl)-4-[(4,6-dimethyl-pyrimidin-2-ylamino)-methyl]-benzamide], the EC50 in experiment [1] worked out at 3000 nM. Besides, the IC50 in experiment [2] was 3000 nM; in experiment [3], 1000 nM.

Consider `Cc1cc(C)nc(NCc2ccc(C(=O)Nc3ccccc3N)cc2)c1` [Cpd 383, N-(2-Amino-phenyl)-4-[(4,6-dimethyl-pyridin-2-ylamino)-methyl]-benzamide], for which the 50% effective concentration (EC50) in experiment [1] worked out at 2000 nM. Moreover, the IC50 in experiment [2] is 2000 nM; in experiment [3], 500 nM.

Turning to `Cc1cc(C)nc(OCc2ccc(C(=O)Nc3ccccc3N)cc2)n1` [Cpd 384, N-(2-Amino-phenyl)-4-(4,6-dimethyl-pyrimidin-2-yloxymethyl)-benzamide], the concentration for a half-maximal effect (EC50) in experiment [1] was found to be 5000 nM. Also, the figures for the IC50 in experiment [2] and in experiment [3] were 3000 nM and 2000 nM, respectively.

As for `COc1cc(NCc2ccc(C(=O)Nc3ccccc3N)cc2)ncn1` [Cpd 385], the EC50 in experiment [1] turned out to be 2000 nM. Further, the figures for the concentration for half-maximal inhibition (IC50) in experiment [2] and in experiment [3] were 3000 nM and 1000 nM, respectively.

Regarding `CC(=O)c1cc2c(cc1NCc1ccc(C(=O)Nc3ccccc3N)cc1)OCO2` [Cpd 386, 4-[(6-Acetyl-benzo[1,3]dioxol-5-ylamino)-methyl]-N-(2-amino-phenyl)-benzamide], the 50% effective concentration (EC50) in experiment [1] was 1000 nM. Besides, the IC50 in experiment [2] turned out to be 3000 nM; in experiment [3] it was 1000 nM.

Consider `COc1cc(Cl)cc(NCc2ccc(C(=O)Nc3ccccc3N)cc2)n1` [Cpd 387], for which, in experiment [1], the EC50 is 1000 nM. The IC50 in experiment [2] came to 2000 nM; in experiment [3], 1000 nM.

Take `COc1ccc(NCc2ccc(C(=O)Nc3ccccc3N)cc2)c(OC)n1` [Cpd 388, N-(2-Amino-phenyl)-4-[(2,6-dimethoxy-pyridin-3-ylamino)-methyl]-benzamide]: in experiment [1], the half-maximal effective concentration (EC50) amounted to 5000 nM. For the same compound, the results for the IC50 in experiment [2] and in experiment [3] were 3000 nM and 400 nM, respectively.

Take `Nc1ccccc1NC(=O)c1ccc(CNc2nc3ccccc3[nH]2)cc1` [Cpd 389]: the 50% effective concentration (EC50) in experiment [1] turned out to be 1000 nM. The half-inhibitory concentration (IC50) worked out at 3000 nM in experiment [2] and 200 nM in experiment [3].

Regarding `COc1cccc(NCc2ccc(C(=O)Nc3ccccc3N)cc2)n1` [Cpd 390, N-(2-Amino-phenyl)-4-[(6-methoxy-pyridin-2-ylamino)-methyl]-benzamide], the EC50 in experiment [1] came out at 5000 nM. For the same compound, the half-inhibitory concentration (IC50) in experiment [2] came to 2000 nM; in experiment [3], 800 nM.

With `Nc1ccccc1NC(=O)c1ccc(CSc2cccc3cccnc23)cc1` [Cpd 391, N-(2-Amino-phenyl)-4-(quinolin-8-ylsulfanylmethyl)-benzamide], the EC50 in experiment [1] is 3000 nM. The IC50 in experiment [2] was determined as 1000 nM; in experiment [3] it was 900 nM.

`COc1cc(NCc2ccc(C(=O)Nc3ccccc3N)cc2)nc(OC)n1` [Cpd 392, N-(2-Amino-phenyl)-4-[(2,6-dimethoxy-pyrimidin-4-ylamino)-methyl]-benzamide]: the EC50 in experiment [1] was found to be 1000 nM. For the same compound, the concentration for half-maximal inhibition (IC50) was 4000 nM in experiment [2] and 1000 nM in experiment [3].

With `COc1cc(CNc2ccc(C(=O)Nc3ccccc3N)cc2)cc(OC)c1` [Cpd 393, N-(2-Amino-phenyl)-4-(3,5-dimethoxy-benzylamino)-benzamide], the EC50 in experiment [1] is 1000 nM. The values for the IC50 in experiment [2] and in experiment [3] were 4000 nM and 600 nM, respectively.

Regarding `COc1cccc(SCc2ccc(C(=O)Nc3ccccc3N)cc2)c1` [Cpd 394], the EC50 in experiment [1] amounted to 25000 nM. Further, the figures for the IC50 in experiment [2] and in experiment [3] were 4000 nM and 2000 nM, respectively.

For `COc1cc(OC)cc(OCc2ccc(C(=O)Nc3ccccc3N)cc2)c1` [Cpd 395, N-(2-Amino-phenyl)-4-(3,5-dimethoxy-phenoxymethyl)-benzamide], in experiment [1], the EC50 came to 5000 nM. Also, the IC50 came out at 2000 nM in experiment [2] and 1000 nM in experiment [3].

`Nc1ccccc1NC(=O)c1ccc(COc2ccc3ccccc3n2)cc1` [Cpd 396, N-(2-Amino-phenyl)-4-(quinolin-2-yloxymethyl)-benzamide]: in experiment [1], the EC50 was found to be 5000 nM. Further, the IC50 in experiment [2] was found to be 2000 nM; in experiment [3] it was 700 nM.

`COc1cc(NCc2ccc(C(=O)Nc3ccccc3N)cc2)cc(OC)c1` [Cpd 397, N-(2-Amino-phenyl)-4-[(3,5-dimethoxy-phenylamino)-methyl]-benzamide]: the EC50 in experiment [1] amounted to 4000 nM. Besides, the 50% inhibitory concentration (IC50) in experiment [2] turned out to be 1000 nM; in experiment [3] it was 600 nM.

In the case of `Nc1ccccc1NC(=O)c1ccc(CNc2ccc3c(c2)OCCO3)cc1` [Cpd 400, N-(2-Amino-phenyl)-4-[(2,3-dihydro-benzo[1,4]dioxin-6-ylamino)-methyl]-benzamide], in experiment [1], the concentration giving a half-maximal response (EC50) is 2000 nM. The values for the IC50 in experiment [2] and in experiment [3] were 8000 nM and 300 nM, respectively.

As for `CC(=O)Nc1ccc(NCc2ccc(C(=O)Nc3ccccc3N)cc2)cc1` [Cpd 401, 4-[(4-Acetylamino-phenylamino)methyl]-N-(2-amino-phenyl)-benzamide], in experiment [1], the EC50 came to 2000 nM. Moreover, the figures for the half-maximal inhibitory concentration (IC50) in experiment [2] and in experiment [3] were 6000 nM and 300 nM, respectively.

For `Nc1ccccc1NC(=O)c1ccc(CNc2ccc(N3CCOCC3)cc2)cc1` [Cpd 402, N-(2-Amino-phenyl)-4-[(4-morpholin-4-yl-phenylamino)-methyl]-benzamide], the EC50 in experiment [1] was determined as 1000 nM. For the same compound, the concentration for half-maximal inhibition (IC50) is 14000 nM in experiment [2] and 400 nM in experiment [3].

Regarding `COc1ccc(NCc2ccc(C(=O)Nc3ccccc3N)cc2)c(C)c1` [Cpd 403, N-(2-Amino-phenyl)-4-[(4-methoxy-2-methyl-phenylamino)-methyl]-benzamide], the EC50 in experiment [1] is 1000 nM. Besides, the results for the IC50 in experiment [2] and in experiment [3] were 1000 nM and 200 nM, respectively.

`COc1cc(C#N)c(NCc2ccc(C(=O)Nc3ccccc3N)cc2)cc1OC` [Cpd 404]: the EC50 in experiment [1] stood at 5000 nM. Besides, the concentration for half-maximal inhibition (IC50) in experiment [2] was 3000 nM; in experiment [3] it was 600 nM.

Consider `COc1ccc(NCc2ccc(C(=O)Nc3ccccc3N)cc2)cc1OCc1cccnc1` [Cpd 405], for which the 50% effective concentration (EC50) in experiment [1] came out at 5000 nM. Moreover, the IC50 in experiment [2] worked out at 5000 nM; in experiment [3], 1000 nM.

As usually defined, the EC50 is the concentration at which the effect is half-maximal. Broadly, the IC50 is the point on the concentration scale where inhibition reaches its midpoint.

The values above are taken from patent US7868204B2, “Inhibitors of histone deacetylase” (MethylGene Inc., priority 2001, dated 2011).
